Test results from ChEMBL document CHEMBL1671626, “In vitro profiling of ceftaroline against a collection of recent bacterial clinical isolates from across the United States” (2008).
In brackets after ≈: the same amount, converted by molar mass.

Key:
Type in all cases: functional
[1] = system: Staphylococcus aureus; experiment: Antibacterial activity against methicillin-susceptible Staphylococcus aureus by CLSI M7-A7 broth microdilution method
[2] = system: Staphylococcus aureus; experiment: Antibacterial activity against coagulase-negative and oxacillin-resistant Staphylococcus aureus by CLSI M7-A7 broth microdilution method
[3] = system: Streptococcus pneumoniae; experiment: Antibacterial activity against penicillin-resistant Streptococcus pneumoniae by CLSI M7-A7 broth microdilution method
[4] = system: Streptococcus pyogenes; experiment: Antibacterial activity against erythromycin-susceptible Streptococcus pyogenes by CLSI M7-A7 broth microdilution method
[5] = system: Streptococcus agalactiae; experiment: Antibacterial activity against erythromycin-susceptible Streptococcus agalactiae by CLSI M7-A7 broth microdilution method
[6] = system: Streptococcus agalactiae; experiment: Antibacterial activity against erythromycin-nonsusceptible Streptococcus agalactiae by CLSI M7-A7 broth microdilution method
[7] = system: Streptococcus viridans; experiment: Antibacterial activity against penicillin-nonsusceptible Streptococcus viridans by CLSI M7-A7 broth microdilution method
[8] = system: Enterococcus faecalis; experiment: Antibacterial activity against vancomycin-susceptible Enterococcus faecalis by CLSI M7-A7 broth microdilution method
[9] = system: Enterococcus faecalis; experiment: Antibacterial activity against vancomycin-resistant Enterococcus faecalis by CLSI M7-A7 broth microdilution method
[10] = system: Enterococcus faecium; experiment: Antibacterial activity against vancomycin-resistant Enterococcus faecium by CLSI M7-A7 broth microdilution method
[11] = system: Enterobacteriaceae; experiment: Antibacterial activity against ceftazidime-susceptible Enterobacteriaceae assessed as resistant isolates by CLSI M7-A7 broth microdilution method
[12] = system: Enterobacteriaceae; experiment: Antibacterial activity against ceftazidime-nonsusceptible Enterobacteriaceae by CLSI M7-A7 broth microdilution method
[13] = system: Enterobacteriaceae; experiment: Antibacterial activity against ceftazidime-nonsusceptible Enterobacteriaceae assessed as susceptible isolates by CLSI M7-A7 broth microdilution method
[14] = system: Citrobacter freundii; experiment: Antibacterial activity against ceftazidime-susceptible Citrobacter freundii assessed as susceptible isolates by CLSI M7-A7 broth microdilution method
[15] = system: Citrobacter freundii; experiment: Antibacterial activity against ceftazidime-susceptible Citrobacter freundii assessed as resistant isolates by CLSI M7-A7 broth microdilution method
[16] = system: Citrobacter freundii; experiment: Antibacterial activity against ceftazidime-nonsusceptible Citrobacter freundii by CLSI M7-A7 broth microdilution method
[17] = system: Citrobacter freundii; experiment: Antibacterial activity against ceftazidime-nonsusceptible Citrobacter freundii assessed as susceptible isolates by CLSI M7-A7 broth microdilution method
[18] = system: Citrobacter freundii; experiment: Antibacterial activity against ceftazidime-nonsusceptible Citrobacter freundii assessed as resistant isolates by CLSI M7-A7 broth microdilution method
[19] = system: Enterobacter cloacae; experiment: Antibacterial activity against ceftazidime-nonsusceptible Enterobacter cloacae assessed as susceptible isolates by CLSI M7-A7 broth microdilution method
[20] = system: Escherichia coli; experiment: Antibacterial activity against ceftazidime-susceptible Escherichia coli by CLSI M7-A7 broth microdilution method
[21] = system: Escherichia coli; experiment: Antibacterial activity against ceftazidime-nonsusceptible Escherichia coli assessed as resistant isolates by CLSI M7-A7 broth microdilution method
[22] = system: Klebsiella pneumoniae; experiment: Antibacterial activity against ceftazidime-susceptible Klebsiella pneumoniae by CLSI M7-A7 broth microdilution method
[23] = system: Klebsiella pneumoniae; experiment: Antibacterial activity against ceftazidime-susceptible Klebsiella pneumoniae assessed as susceptible isolates by CLSI M7-A7 broth microdilution method
[24] = system: Klebsiella pneumoniae; experiment: Antibacterial activity against ceftazidime-susceptible Klebsiella pneumoniae assessed as resistant isolates by CLSI M7-A7 broth microdilution method
[25] = system: Klebsiella pneumoniae; experiment: Antibacterial activity against ceftazidime-nonsusceptible Klebsiella pneumoniae by CLSI M7-A7 broth microdilution method
[26] = system: Klebsiella pneumoniae; experiment: Antibacterial activity against ceftazidime-nonsusceptible Klebsiella pneumoniae assessed as resistant isolates by CLSI M7-A7 broth microdilution method
[27] = system: Morganella morganii; experiment: Antibacterial activity against ceftazidime-susceptible Morganella morganii by CLSI M7-A7 broth microdilution method
[28] = system: Proteus mirabilis; experiment: Antibacterial activity against ceftazidime-susceptible Proteus mirabilis by CLSI M7-A7 broth microdilution method
[29] = system: Proteus mirabilis; experiment: Antibacterial activity against ceftazidime-susceptible Proteus mirabilis assessed as susceptible isolates by CLSI M7-A7 broth microdilution method
[30] = system: Serratia marcescens; experiment: Antibacterial activity against ceftazidime-susceptible Serratia marcescens assessed as resistant isolates by CLSI M7-A7 broth microdilution method
[31] = system: Acinetobacter; experiment: Antibacterial activity against multidrug-resistant Acinetobacter assessed as susceptible isolates by CLSI M7-A7 broth microdilution method
[32] = system: Acinetobacter; experiment: Antibacterial activity against imipenem-susceptible Acinetobacter assessed as susceptible isolates by CLSI M7-A7 broth microdilution method
[33] = system: Haemophilus influenzae; experiment: Antibacterial activity against beta lactamase-negative Haemophilus influenzae by CLSI M7-A7 broth microdilution method
[34] = system: Pasteurella multocida; experiment: Antibacterial activity against Pasteurella multocida by CLSI M7-A7 broth microdilution method
[35] = system: Providencia sp.; experiment: Antibacterial activity against ceftazidime-susceptible Providencia sp. by CLSI M7-A7 broth microdilution method

`CC(C)(O/N=C(\C(=O)N[C@@H]1C(=O)N2C(C(=O)[O-])=C(C[n+]3ccccc3)CS[C@H]12)c1csc(N)n1)C(=O)O` [CEFTAZIDIME] was tested, and the MIC50 [1] was 8 µg/mL (≈ 14.6 µM), the MIC90 [1] was 8 µg/mL (≈ 14.6 µM) and the MIC50 [2] was 32 µg/mL (≈ 58.5 µM). The MIC90 [2] was > 32 µg/mL, the MIC50 [3] was 16 µg/mL (≈ 29.3 µM) and the MIC90 [3] was 32 µg/mL (≈ 58.5 µM). For the same molecule, the MIC [4] was ≤ 1 µg/mL, the MIC50 [4] was ≤ 1 µg/mL and the MIC90 [4] was ≤ 1 µg/mL. The MIC [5] was ≤ 1 µg/mL, the MIC50 [5] was ≤ 1 µg/mL and the MIC90 [5] was ≤ 1 µg/mL. The MIC [6] was ≤ 1 µg/mL, the MIC50 [6] was ≤ 1 µg/mL and the MIC90 [6] was ≤ 1 µg/mL. The MIC50 [7] was 8 µg/mL (≈ 14.6 µM), the MIC90 [7] was > 32 µg/mL and the MIC [8] was > 32 µg/mL. For the same molecule, the MIC50 [8] was > 32 µg/mL, the MIC90 [8] was > 32 µg/mL and the MIC50 [9] was > 32 µg/mL. For the same molecule, the MIC90 [9] was > 32 µg/mL, the MIC [10] was > 32 µg/mL and the MIC50 [10] was > 32 µg/mL. For the same molecule, the MIC90 [10] was > 32 µg/mL, the Activity [11] was 0% and the MIC50 [12] was > 32 µg/mL. The MIC90 [12] was > 32 µg/mL, the Activity [13] was 0% and the Activity [14] was 100%. For the same molecule, the Activity [15] was 0%, the MIC50 [16] was > 32 µg/mL and the MIC90 [16] was > 32 µg/mL. For the same molecule, the Activity [17] was 0%, the Activity [18] was 97% and the Activity [19] was 0%. It also gave an MIC50 [20] of 0.12 µg/mL (≈ 0.22 µM), an MIC90 [20] of 0.25 µg/mL (≈ 0.457 µM) and an Activity [21] of 87.3%. For the same molecule, the MIC50 [22] was 0.12 µg/mL (≈ 0.22 µM), the MIC90 [22] was 0.25 µg/mL (≈ 0.457 µM) and the Activity [23] was 100%. The Activity [24] was 0%, the MIC50 [25] was > 32 µg/mL and the MIC90 [25] was > 32 µg/mL. It also gave an Activity [26] of 98.5%, an MIC50 [27] of 0.06 µg/mL (≈ 0.11 µM) and an MIC90 [27] of 4 µg/mL (≈ 7.32 µM). The MIC50 [28] was 0.06 µg/mL (≈ 0.11 µM), the MIC90 [28] was 0.12 µg/mL (≈ 0.22 µM) and the Activity [29] was 100%. The Activity [30] was 0%, the Activity [31] was 0% and the Activity [32] was 63.8%. The MIC50 [33] was 0.06 µg/mL (≈ 0.11 µM), the MIC90 [33] was 0.12 µg/mL (≈ 0.22 µM) and the MIC [34] was ≤ 1 µg/mL. For the same molecule, the MIC50 [34] was ≤ 1 µg/mL, the MIC90 [34] was ≤ 1 µg/mL and the MIC50 [35] was 0.25 µg/mL (≈ 0.457 µM). It also gave an MIC90 [35] of 4 µg/mL (≈ 7.32 µM).
